Patent EP4570800A1, “CRYSTAL FORM OF PYRIDINOPYRIMIDINONE COMPOUND, ACID SALT THEREOF, CRYSTAL FORM OF ACID SALT THEREOF, AND USE” (Wuhan Humanwell Innovative Drug Research and Development …, priority 2022, dated 2024)
Where two headings read alike, the source gives them in different places.

What was measured:
[1] = tested on: Mia Paca-2 pancreatic cancer; experiment: In vivo efficacy test on Mia Paca-2 pancreatic cancer; design: species or system mice; conditions: for Average tumor weight at the end of the treatment / Tumor weight inhibition rate (relative to the vehicle group): BID
Method: (§1) After one week of adaptive feeding of mice, Mia Paca-2 cells in a logarithmic phase were resuspended in serum-free DMEM, and then mixed with Matrigel in a ratio of 1: 1. 1 × 10^7 Mia Paca-2 cells were inoculated subcutaneously at the right flank at 100 µL per mouse, and tumor growth was observed regularly. When the tumor grew to an average volume of 150 to 200 mm^3, the mice were randomly divided into a model group and an administration group (single drug, in combination with trametinib) based on the tumor size and body weight. The tumor size and body weight were measured and recorded before and during the administration. After the treatment, the tumor size in the model group was compared with that in the administration group to determine the efficacy.

[2] = Mouse pharmacokinetic test (oral gavage); format: in vivo; conditions: plasma, male ICR mice, oral administration by gavage, 10 mg/kg
Method: Male ICR mice (20 to 25 g) were used, and fasted overnight. Three mice were taken and orally administered by gavage (10 mg/kg). Blood was collected before the administration, and at 15 min, 30 min, 1 h, 2 h, 4 h, 8 h, and 24 h after the administration. 6,800 g of the blood samples were centrifuged at 2 to 8°C for 6 min, and plasma was collected and stored at -80°C. The plasma at each time point was taken and added with an acetonitrile solution containing internal standard in 3 to 5 times the amount, vortexed and mixed for 1 min, and centrifuged at 13,000 rpm/min at 4°C for 10 min. The supernatant was collected, added with water in 3 times the amount, and mixed. An appropriate amount of the mixture was taken for LC-MS/MS analysis. The main pharmacokinetic parameters were analyzed using WinNonlin 7.0 software with non-compartmental model.

[3] = tested on: ERK phosphorylation level in DLD-1 cells; experiment: Inhibition of ERK phosphorylation level in DLD-1 cells (intracellular western blot); format: cell-based; conditions: Homo sapiens
Method: Intracellular western blot quantitative analysis was used to detect the inhibitory level of compounds on ERK phosphorylation in DLD-1 cells.
DLD-1 cells (ATCC, CCL-221) were seeded in a T75 culture flask at 2.5 × 10^6 cells/flask, and cultured in a RPMI 1640 medium containing 10% FBS for 2 days. On day 3, the cells were seeded on a 384-well plate, and cultured overnight at 37°C, 5% CO2. After overnight culture, the plate was added with serially diluted compounds (the final content of DMSO was 0.5%), the negative group was added with DMSO, and incubated in a 37°C, 5% CO2 incubator.
The cells were fixed, washed once with PBS, treated to disrupt membranes, and blocked at room temperature for 1 h. The blocking solution was removed. The plate was added with primary antibody (CST, Cat. No. #4370S), and incubated overnight at 4°C. The plate was washed 3 times with PBST (PBS solution added with 0.05% Tween-20), and soaked for 2 min each time. The plate was added with secondary antibody (LI-COR, Cat. No. 926-32211), and incubated at room temperature in the dark. The plate was washed 3 times with PBST, and soaked for 2 min each time. The plate was centrifuged at 1000 rpm for 1 min, scanned on a two-color infrared laser imaging system (Odyssey® CLX) to read the signal. Relative signal = 800-channel signal values/700-channel signal values. […]
IC50 values were calculated using Graphpad 5 software.

[4] = Human liver microsome stability test; format: in vitro ADME; conditions: human liver microsomes
Method: The human liver microsome stability test was performed by incubating the compound and human liver microsomes in vitro. First, the compound to be tested was prepared into a 10 mM stock solution in DMSO solvent, and then the compound was diluted to 0.5 mM with acetonitrile. Human liver microsomes (Corning) were diluted with PBS into a microsome/buffer solution, and the solution was used to dilute 0.5 mM compound into a working solution, in which the concentration of the compound was 1.5 µM, and the concentration of human liver microsomes was 0.75 mg/mL. A deep-well plate was taken, 30 µL of the working solution was added per well, and then 15 µL of pre-heated 6 mM NADPH solution was added thereto to initiate a reaction, and the reaction was incubated at 37°C. At 0, 5, 15, 30, and 45 min of the incubation, 135 µL of acetonitrile was added to the corresponding wells to terminate the reaction. After the reaction was terminated with acetonitrile at the last time point of 45 min, the deep-well plate was vortexed for 10 min (600 rpm/min), and then centrifuged for 15 min. After centrifugation, the supernatant was collected, and added with purified water in a ratio of 1:1 to perform LC-MS/MS detection. A ratio of a peak area of compound to a peak area of internal standard at each time point was obtained, and the peak area ratios of the compound at 5, 15, 30, and 45 min were compared with the peak area ratio at 0 min to calculate the remaining percentage of the compound at each time point. T1/2 was calculated by using GraphPad 5 software.

[5] = molecular target: T1, CYP3A4 (Homo sapiens, UniProt P08684); experiment: Cytochrome P450 inhibition test (CYP3A4, substrates midazolam and testosterone); format: in vitro ADME; conditions: compound 10 µM, human liver microsomes
T1 construct: A human liver microsome solution at a concentration of 0.2 mg/mL was prepared; from tissue; host or cells: human liver microsomes
T1 sequence (P08684 whole entry): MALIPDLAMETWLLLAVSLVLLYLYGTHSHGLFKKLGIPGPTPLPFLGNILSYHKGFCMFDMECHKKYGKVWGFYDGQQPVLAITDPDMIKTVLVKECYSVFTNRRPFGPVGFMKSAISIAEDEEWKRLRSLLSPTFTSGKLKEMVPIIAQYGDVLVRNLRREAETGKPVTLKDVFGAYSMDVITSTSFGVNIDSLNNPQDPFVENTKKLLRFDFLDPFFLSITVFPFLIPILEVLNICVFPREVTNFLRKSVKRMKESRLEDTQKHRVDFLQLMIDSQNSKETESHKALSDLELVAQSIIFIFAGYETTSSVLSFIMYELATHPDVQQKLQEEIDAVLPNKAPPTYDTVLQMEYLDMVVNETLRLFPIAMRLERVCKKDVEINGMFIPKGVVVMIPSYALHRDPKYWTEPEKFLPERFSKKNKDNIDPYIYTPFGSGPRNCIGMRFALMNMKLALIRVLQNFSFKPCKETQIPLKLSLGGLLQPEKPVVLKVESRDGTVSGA
Method: The inhibitory potential of compounds on cytochrome P450 (CYP450) subtype CYP3A4 (two substrates of midazolam and testosterone) was detected. First, the compound to be tested was prepared into a 10 mM stock solution in DMSO solvent, and the CYP3A4 inhibitor ketoconazole was prepared as 10 mM, 2.5 mM, and 2.5 mM stock solutions in DMSO solvent. The test compound and ketoconazole were diluted to 400-fold final concentration (compound: 10 µM, ketoconazole: 2.5 µM) with acetonitrile.
NADPH cofactor (10 mL of potassium phosphate buffer added with 66.7 mg NADPH) at 4-fold final concentration and substrates were prepared with potassium phosphate buffer (0.1 M, pH = 7.4), with CYP3A4 substrate midazolam at a final concentration of 320 µM and CYP3A4 substrate testosterone at a final concentration of 20 µM.
A human liver microsome solution at a concentration of 0.2 mg/mL was prepared with potassium phosphate buffer on ice. A solution of the compound to be tested and a control inhibitor (control compound) solution at 2-fold final concentration were prepared with the human liver microsome solution on ice. The test wells were added with 30 mL of the test compound solution and the control inhibitor solution respectively, and then added with 15 mL of the substrate for duplication. […]

[6] = tested on: LOVO colorectal cancer; experiment: In vivo efficacy test on LOVO colorectal cancer; design: species or system mice; conditions: 50 mg/kg, BID
Method: as §1, with “LOVO” for “Mia Paca-2”, “F12K, 5” for “DMEM, and then mixed with Matrigel in a ratio of 1: 1. 1”, “10^6 LOVO” for “10^7 Mia Paca-2”, “group” for “group (single drug, in combination with trametinib)”

Question: With `Cc1nc(N[C@H](C)c2cccc(S(F)(F)(F)(F)F)c2)c2cn(C3(CF)CC3)c(=O)cc2n1` [Compound of formula I, (R)-6-(1-(fluoromethyl)cyclopropyl)-2-methyl-4-((1-(3-(pentafluorosulfanyl)phenyl)ethyl)amino)pyrido[4,3-d]pyrimidin-7(6H)-one] as the compound, how does the “Average tumor weight at the end of the treatment” value ([1]; Mia Paca-2, 25 mg/kg) read?
Answer: 0.35 g

Question: And the “Tumor weight inhibition rate (relative to the vehicle group)” value ([1]; Mia Paca-2, 25 mg/kg)?
Answer: 70%

Question: What about the “Average tumor weight at the end of the treatment” value ([1]; Mia Paca-2, 50 mg/kg) of the same compound?
Answer: 0.27 g

Question: What about the “Tumor weight inhibition rate (relative to the vehicle group)” value ([1]; Mia Paca-2, 50 mg/kg) of the same compound?
Answer: 76%

Question: And the “inhibitory effect on Mia Paca-2 tumor growth” value ([1]; alone (single drug))?
Answer: significant inhibitory effect

Question: What about the “efficacy of combined use compared with single use” value ([1]; combination with trametinib vs single use, Mia Paca-2) of the same compound?
Answer: more effective than the single use

Question: What about the “inhibitory effect on Mia Paca-2 tumor growth” value ([1]; in combination with trametinib) of the same compound?
Answer: significant inhibitory effect

Question: And the AUC(0-t) [2]?
Answer: 3080 ng·h/mL

Question: And the Cmax [2]?
Answer: 1440 ng/mL

Question: What about the Tmax [2] of the same compound?
Answer: 1 h

Question: What about the half-life [2] of the same compound?
Answer: 0.97 h

Question: And the IC50 [3]?
Answer: 56 nM

Question: What about the half-life at 1 µM [4] of the same compound?
Answer: 12.8 h

Question: What about the “Remaining percentage (%) of compound after incubation for 30 min” value ([4]; incubation for 30 min, 37°C) of the same compound?
Answer: 98.7%

Question: And the inhibition at 5 min, 10 µM ([5]; pH 7.4, probe midazolam, substrate midazolam, read-out: CYP inhibition rate (%) CYP3A4 (midazolam))?
Answer: 0%

Question: And the inhibition at 5 min, 10 µM ([5]; pH 7.4, probe testosterone, substrate testosterone, read-out: CYP inhibition rate (%) CYP3A4 (testosterone))?
Answer: 0%

Question: And the “At the end of treatment Average tumor weight” value [6]?
Answer: 0.75 g

Question: And the “Tumor weight inhibition rate (relative to the vehicle group)” value [6]?
Answer: 46%
